Data published in publication PMC5127577, “Biochemical Characterization of Glutamate Racemase—A New Candidate Drug Target against Burkholderia cenocepacia Infections” (PLoS ONE, 2016).
Read-outs that look alike come from different tables or passages of the source.

Tests used:
GR from B. subtilis = settings: cited from earlier work
[1] = target: T1, B. cenocepacia J2315 glutamate racemase (BcGR) (Burkholderia cenocepacia, UniProt B4EEM8); experiment: BcGR enzymatic activity inhibition, spectrophotometric coupled assay (L-glutamate dehydrogenase/diaphorase); settings: for BcGR inhibition in screening: compound 100 μM; for inhibitory effect in the presence of EDTA: excess of EDTA; for mode of inhibition: steady state kinetics, D-Glu 5–50 mM, compound 0–100 μM
T1 sequence (B4EEM8 1-285): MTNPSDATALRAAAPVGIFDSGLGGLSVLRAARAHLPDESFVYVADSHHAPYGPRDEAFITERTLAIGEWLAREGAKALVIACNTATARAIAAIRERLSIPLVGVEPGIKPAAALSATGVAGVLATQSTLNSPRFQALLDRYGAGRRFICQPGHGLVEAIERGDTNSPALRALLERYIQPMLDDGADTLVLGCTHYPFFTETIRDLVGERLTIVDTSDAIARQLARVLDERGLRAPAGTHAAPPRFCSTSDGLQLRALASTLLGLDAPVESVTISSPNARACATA

GR from B. anthracis = settings: cited from earlier work
B. cenocepacia J2315 = experiment: Minimal Inhibitory Concentration, 2-fold microdilution, resazurin method; type: cell-based, Burkholderia cenocepacia J2315; settings: planktonic cells, 8 to 1024 μg/ml tested, two days 37°C

Compound	Ki (GR from B. subtilis)	BcGR inhibition in screening ([1]; 20 mM D-Glu)	MIC (concentration necessary to inhibit growth) (B. cenocepacia J2315)	IC50 ([1]; 20 mM D-Glu, 37°C, pH 8.0)	inhibitory effect in the presence of EDTA [1]	mode of inhibition [1]	other results
O=S(=O)(O)c1nc2ccccc2[nH]1 [1-H-benzimidazole-2-sulfonic acid, reference compound]	0.009 mM	did not show any inhibition					
O=S(=O)(O)c1ccc(O)c(S(=O)(=O)O)c1 [4-hydroxybenzene-1,3-disulfonate, reference compound]		did not show any inhibition					Ki (GR from B. anthracis): 59 µM
N[C@H](CC(Cc1ccccc1)C(=O)O)C(=O)O (stereo partly drawn) [(2R)-2-amino-4-benzylpentanedioic, (2R)-2-amino-4-benzylpentanedioic acid, reference compound]		did not show any inhibition					
O=C(O)c1cccc(C(=O)O)n1 [dipicolinic acid]	2.7 mM						Ki (GR from B. anthracis; non-competitive inhibitor): 92 µM; IC50 [1]: 150 ± 30 µM
bis(2,4-bis(trichloromethyl)-1,3,5-triazapentadienato)-zinc(II) complex [(1)]		almost completely inhibit	at least 512 μg/ml	35.3 ± 4.9 µM	could be observed also in the presence of EDTA	non-competitive	
tris(2,4-bis(trichloromethyl)-1,3,5-triazapentadienate)-Mn(III) complex [(2)]		almost completely inhibit	at least 512 μg/ml	10 ± 0.8 µM	could be observed also in the presence of EDTA	non-competitive	
